Measured values from patent US8852876B2, “Label free biosensors and cells” (Corning Incorporated, priority 2008, dated 2014).

Tests used:
CHO cells = experiment: Biosensor-based cell toxicity (real-time DMR, TM0 resonant peak and band image); parameters: species or system Chinese hamster; conditions: for TM0 mode resonance band image: 25 min
Description: Profiling compounds by virtue of their cytotoxic and anti-proliferative effects is often used to profile potential anticancer agents. One such phenotype is the compromise in plasma membrane integrity when cells are exposed to cytotoxic agents, including dimethyl sulfoxide (DMSO). Using a waveguide-based biosensor technique, the feasibility for monitoring the effect of DMSO on both Chinese hamster ovary (CHO) and A431 cells was examined. Approximately 10×10^5 cells were placed into each well of a Corning Epic LID microplate. These cells were cultured in serum medium for overnight to ensure that the cells became adherent to the substrate surface and reach at least 80% confluence. The response of cells to DMSO at different concentrations (1%, 2%, 5%, 10%, 15%, 18% and 20%) was examined. Higher concentrations of ˜≧25% of DMSO result in bulk index changes which are beyond the maximum dynamic range of the sensor used and the signal was lost. At least two sets of experiments were carried out for each cell line.
Both A431 and CHO-K1 cells were grown in Dulbecco's modified Eagle's medium (DMEM) supplemented with 10% fetal calf serum, 100 μg/ml penicillin, and 100 μg/ml streptomycin. For cell culture, ˜10×10^5 cells, either A431 or CHO-K1, were suspended in 200 μl medium were placed in each well of a 96 well Corning Epic Biosensor microplate, and were cultured at 37° C. in air/5% CO2 for overnight. Before the assays, the cells were washed once with the corresponding medium. During the assays, the cells in 100 μl medium were subject to two 25 μl HBSS buffer solutions containing 20 mM HEPES, pH 7.4, each separated by at least 15 minutes before 50 μl DMSO solution was applied. During all these steps, a parallel angular interrogation system was used to monitor the real time kinetics of cellular responses.
In one embodiment, the present invention provides a method for high throughput screening compound toxicity on cells using optical biosensors, which comprises of: (a) Provide a microplate that there is an optical-based label free biosensor embedded in the bottom of each well; (b) Place cells into each well to cover the biosensor such that the cells attach and reach high confluency onto the surface of the biosensor; (c) Apply a compound solution into the cell medium of each well; (e) Collect optical waveguide lightmode spectra at certain time. Comparing the PWHM of each compound with a control well wherein the cells are not exposed to any compound solution, the toxicity of compounds can be evaluated using the single data point. If necessary, time-dependent PWHM changes can be also recorded to study the kinetics.
In another embodiment, the present invention provides alternative methods to evaluate compound toxicity, which comprises of: (a) Provide a microplate that there is an optical-based label free biosensor embedded in the bottom of each well; (b) Place cells into each well to cover the biosensor such that the cells attach and reach desired confluency onto the surface of the biosensor; (c) Apply a compound solution into the cell medium of each well; (e) Collect images of TM0 mode resonance angular band of the whole sensor area of each well at certain time. Comparing the widths of the resonant bands of sensors that have been treated with a compound solution with that of a control well wherein the cells are not exposed to any compound solution; the toxicity of compounds can be evaluated.

[1] = system: EGF-induced response of quiescent A431 cells; experiment: Effect of compound pretreatment on EGF-induced DMR response; type: cell-based, human; conditions: for Effect of pretreatment on 32 nM EGF-induced response: quiescent A431 cells
Description: Both A431 and CHO-K1 cells were grown in Dulbecco's modified Eagle's medium (DMEM) supplemented with 10% fetal calf serum, 100 μg/ml penicillin, and 100 μg/ml streptomycin. For cell culture, certain numbers of cells (2×10^5 to 1×10^6), either A431 or CHO-K1, were suspended in […] medium were placed in each well of a 96 well Corning Epic Biosensor microplate, and were cultured at 37° C. in air/5% CO2 for certain time until the cell density reached ˜90% and above (unless specified). The resulted cells were termed as “profilerating” cells. The “quiescent” cells were obtained by culturing the profilerating cells of desired confluencies with a medium containing no or little (˜0.1% fetal bovine serum (FBS)) for at least 16 hours.
During the assays, the cells in 100 μl medium were subject to two 25 μl HBSS buffer containing 20 mM HEPES, pH 7.4, each separated by at least 15 minutes before 50 μl stimulus-containing solution was applied. During all these steps, a parallel angular interrogation system was used to monitor the real time kinetics of cellular responses. For compound effect studies, a modified protocol was used which starts with 50 μl medium, and subject to sequential treatment: 25 μl HBSS buffer twice (each separated by at least 15 minutes), 50 μl compound solution and finally 50 μl stimulus-containing solution.

[2] = biological target: T1, protease activated receptors PAR1 and PAR2 (Homo sapiens, UniProt P25116); type: cell-based; conditions: 40 unit/ml thrombin; modulators 10 μM
T1 construct: A431 cells which endogenously express PAR1 and PAR2; endogenous in cells; host or cells: A431
T1 sequence (P25116 22-425): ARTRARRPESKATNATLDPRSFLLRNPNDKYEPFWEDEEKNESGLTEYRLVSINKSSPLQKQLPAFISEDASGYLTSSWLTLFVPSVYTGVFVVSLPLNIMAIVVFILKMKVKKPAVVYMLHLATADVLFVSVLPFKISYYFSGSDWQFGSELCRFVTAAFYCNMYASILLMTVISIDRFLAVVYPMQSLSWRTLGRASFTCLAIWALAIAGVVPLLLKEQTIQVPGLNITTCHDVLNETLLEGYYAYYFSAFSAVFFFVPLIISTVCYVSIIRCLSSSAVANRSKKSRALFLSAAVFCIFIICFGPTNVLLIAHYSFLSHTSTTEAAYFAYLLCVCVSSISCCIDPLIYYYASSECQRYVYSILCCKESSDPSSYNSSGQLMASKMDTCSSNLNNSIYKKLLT
Description: (§1) Human epidermoid carcinoma A431 cells (American Type Cell Culture) were grown in Dulbecco's modified Eagle's medium (DMEM) supplemented with 10% fetal bovine serum (FBS), 4.5 g/liter glucose, 2 mM glutamine, and antibiotics. ˜3-7.5×10^4 cells at passage 3 to 5 suspended in 200 μl the DMEM medium containing 10% FBS were placed in each well of a 96 well microplate, and were cultured at 37° C. under air/5% CO2 until ˜95% confluency was reached (˜2-4 days).
(§2) The compound or PAR agonist solutions were made in 1×HBSS in order to match the refractive index between the cell medium and compound solution, thus minimizing the unwanted effect of bulk index change due to the introduction of compound solution which can temporarily overwhelms any DMR signal as it occurs.

[3] = system: protease activated receptors PAR1 and PAR2; type: cell-based, human; conditions: for Effect of pretreatment on trypsin-mediated DMR signal: 100 or 200 nM trypsin, modulators 10 μM
Description: as §1, §2

quiescent A431 cells = experiment: H2O2-induced DMR (reactive oxygen species signaling, redox state); type: cell-based, human; conditions: for DMR signal: 4 mM H2O2; for Effect on cell responses mediated with 1 mM H2O2: src kinase modulators
Description: In this study, all optical responses were monitored with a wavelength interrogation system. The RWG biosensor is comprised of three major components for bioassay applications: an Epic™ sensor microplate, an RWG detector, and a liquid handling system. The sensor microplate consists of a glass bottom plate attached to a plastic holy plate of a given SBS format (e.g., 96-well or 384-well), which enables high throughput screening. In a 96 well Epic™ sensor microplate, each well contains one RWG sensor of approximately 3×3 mm^2. The RWG sensor consists of a thin film of dielectric material on the grating presenting glass substrate.
The wavelength interrogation detector system is centered on integrated fiber optics. A broadband light source, generated through a fiber optic and a collimating lens at nominally normal incidence through the bottom of the microplate, is used to illuminate a small region of the grating surface. A detection fiber for recording the reflected light is bundled with the illumination fiber. A series of 8 illumination/detection heads are arranged in a linear fashion, so that reflection spectra are collected from all 8 wells within the same column of a microplate at once. With the spatial-controlled movement, the whole plate is moving across the illumination/detection heads so that each sensor can be addressed multiple times, and each column be addressed in sequence. A series of spectra of the reflected lights are collected and used for analysis. Since this detection system measures the wavelength shift of the reflected lights induced by the cell response in response to stimulation, this approach is referred to the wavelength interrogation system.

[4] = system: endogenous GPCRs in A431 cells; experiment: DMR optical biosensor profiling of GPCR agonists; type: cell-based, human; conditions: quiescent A431; first class = Gq-type, second = Gs-type, third = Gi-type, fourth = no significant DMR
[5] = system: protease activated receptors PAR1 and PAR2; experiment: Fluo-3 Ca2+ mobilization assay with PAR agonists; type: cell-based, human
Description: A431 at passage 3 to 5 were grown in Costar™ 96 well clear cell culture microplates until ˜95% confluency, washed twice and starved overnight with the DMEM only, washed with 1×HBSS (1× regular Hank's balanced salt solution, 20 mM HEPES buffer, pH 7.0) in the presence of 2.5 mM probenicid, and labeled in the same buffer containing 4 μM Fluo-3 for 1 hour at room temperature. The cells were then washed twice with buffer, maintained with 100 μl 1×HBSS containing 2.5 mM probenicid. The assay was initiated by transferring 50 μl PAR agonist solution to the cell plate, and calcium signal was recorded over 6 minutes with a 6 sec interval using HTS7000 BioAssay Reader (PerkinElmer Life Science, Boston, Mass.). The assays were carried out at room temperature in order to allow direct comparison with optical sensing data.

In the case of `C[S+](C)[O-]` [DMSO, dimethyl sulfoxide], the “TM0 mode resonance band image” value (CHO cells; 18% DMSO, confluency above 70%) is reported as “DMSO-induced resonance band broadening”, the “PWHM of TM0 resonant peak over time” value (CHO cells; 18% DMSO, cell density below ~25%) is reported as “no change in the PWHM value over time” and the “PWHM of TM0 resonant peak over time” value (CHO cells; 18% DMSO, confluency >70%) is reported as “an initial increase in PWHM followed by decreasing PWHM value”. The “DMSO-induced time-dependent response of cell layer, event D” value (CHO cells; DMSO 20%) was “a prolonged and decreased signal due to the loss of proteins or other biological molecules of cells caused by the toxicity of high concentrations of DMSO”, the “DMSO-induced time-dependent response of cell layer” value (CHO cells; DMSO concentration <20%) was “the response is almost featureless” and the “TM0 mode resonance band image” value (CHO cells; ~15% DMSO, ~95% confluency) was “a second resonance band appearing”. The “TM0 mode resonance band image, dependence on DMSO concentration” value (CHO cells; ~95% confluency, 25 min treatment) was “only higher concentrations cause significant cell toxicity” and the “Effect of pretreatment on 32 nM EGF-induced response” value [1] was “a little effect on the EGF-induced response”.
With `CN(C)CCCn1cc(C2=C(c3c[nH]c4ccccc34)C(=O)NC2=O)c2ccccc21` [GF 109203x] the “Effect of pretreatment on thrombin-mediated DMR signal” value [2] was “no obvious effect on both thrombin- and trypsin-mediated DMR signal”, the “Effect of pretreatment on trypsin-mediated DMR signal” value [3] was “no obvious effect on both thrombin- and trypsin-mediated DMR signal” and the “Effect of pretreatment on 32 nM EGF-induced response” value [1] was “partial attenuation on the response”.
In the case of `OO` [H2O2, hydrogen peroxide], the “DMR signal (shift in incident angle)” value (quiescent A431 cells; 1 mM H2O2) is reported as “triggered significant mass redistribution within the sensing volume of the sensors”, the “PWHM of resonant peak of TM0 mode” value (quiescent A431 cells; 1 mM H2O2) is reported as “slightly increased the PWHM of the resonant peak of TM0 mode” and the DMR signal (quiescent A431 cells; high redox state cells) is reported as “a characteristic of cells undergoing apoptosis”. The DMR signal (quiescent A431 cells; low redox state cells) was “a typical DMR signal for the low redox state of cells”, the “DMR signal and Live/Dead cell staining” value (quiescent A431 cells; H2O2 at or above 16 mM) was “the cells treated with high doses of H2O2 undergo apoptosis” and the “DMR signal (wavelength shift)” value (quiescent A431 cells; H2O2 at or below about 8 mM) was “a typical curve that consists of two major events: an initial peak and a prolonged increased mass signal”.
For `Cc1ccc(-c2nn(C(C)(C)C)c3ncnc(N)c23)cc1` [PP1], the “Effect on cell responses mediated with 1 mM H2O2” value (“Effect on cell responses mediated” for short) (quiescent A431 cells) was “significantly suppressed the H2O2-mediated cell responses” and the “Effect of pre-treatment on EGF-induced P-DMR and N-DMR signals” value ([1]; starved A431 cells, 8 nM EGF, 30-minute pretreatment, GH 0.5 ng/ml, PD98059 0.1 mM, PP1 1 μM, wortmannin 0.1 μM, DIP 50 μM) was “significantly reduced both the binding and DMR signals”.
With `CC(C)(C)n1nc(-c2ccc(Cl)cc2)c2c(N)ncnc21` [PP2] the “Effect on cell responses mediated” value (quiescent A431 cells) was “significantly suppressed the H2O2-mediated cell responses”.
In the case of `Nc1ncnc2c1cnn2-c1ccccc1` [PP3], the “Effect on cell responses mediated” value (quiescent A431 cells) is reported as “did not affect the responses”.
With `C/C1=C/C(=O)O[C@@H]2C[C@@H](CC[C@H](C)/C=C\C=C\CC1)O[C@@](O)([C@@H]1CSC(=O)N1)C2` [latrunculin A] the “Effect of pretreatment on thrombin-mediated DMR signal” value [2] was “completely blocked either thrombin- or trypsin-mediated DMR signal”, the “Effect of pretreatment on trypsin-mediated DMR signal” value [3] was “completely blocked either thrombin- or trypsin-mediated DMR signal” and the “Effect of pretreatment on 32 nM EGF-induced response” value [1] was “totally abolished the N-DMR signal”.
In the case of `COC(=O)Nc1nc2ccc(C(=O)c3cccs3)cc2[nH]1` [nocodazole], the “Effect of pretreatment on thrombin-mediated DMR signal” value [2] is reported as “neither a stabilizing polymeric F-actin agent phalloidin nor a microtubule disrupter nocodazole had significant effect”, the “Effect of pretreatment on trypsin-mediated DMR signal” value [3] is reported as “neither a stabilizing polymeric F-actin agent phalloidin nor a microtubule disrupter nocodazole had significant effect” and the “Effect of pretreatment on 32 nM EGF-induced response” value [1] is reported as “hardly any effect on the EGF-induced response”.
In the case of SFFLR-amide [PAR1-AP], the “Effect of preceding stimulation on trypsin-induced DMR signal” value ([3]; interval about 1 hour) is reported as “significantly suppresses but not completely eliminates the trypsin-induced DMR signal”, the “Class of optical signature (DMR) induced by agonist” value [4] is reported as “first class of optical signatures” and the “Effect of preceding stimulation on trypsin-induced [Ca2+]i elevation” value ([5]; interval 6 min, 200 nM trypsin) is reported as “significantly attenuated but not completely eliminates the trypsin-induced [Ca^2+]i elevation”. For the same molecule, the “Maximal [Ca2+]i elevation” value ([5]; quiescent A431, Fluo-3) was 74.3±3.9% and the “[Ca2+]i elevation after preceding stimulation with thrombin” value ([5]; thrombin 40 unit/ml first, interval 6 min) was 32±4.3%.
